One data set concerns Calf thymus DNA. Kind of data set: Binding affinity to calf thymus DNA assessed as intercalation by measuring hypochromic shift at 292 nm by […]. It counts as nucleic-acid assay. The settings on record: Bos taurus. For orientation: Circular dichroism is the unequal absorption of left and right circularly polarised light.
A short description of data set [1]: Half life in Kunming mouse plasma at 10 mg/kg, iv administered as single dose measured after 5 to 360 mins by HPLC analysis. In kind it is ADME, organism-based. To be noted: time 5-360 min.
Data set [2] concerns MCF7. Kind of data set: Cytotoxicity against human MCF7 cells expressing high level of topoisomerase I/II measured after 72 hrs by MTT assay. In kind it is functional, cell-based. The settings on record: MCF7, 72 h. In general terms: Formazan colour is commonly taken as a measure of viable cells.
For data set [3], the target named is T1, DNA topoisomerase 1 (Homo sapiens) (UniProt P11387).
T1 sequence (whole entry): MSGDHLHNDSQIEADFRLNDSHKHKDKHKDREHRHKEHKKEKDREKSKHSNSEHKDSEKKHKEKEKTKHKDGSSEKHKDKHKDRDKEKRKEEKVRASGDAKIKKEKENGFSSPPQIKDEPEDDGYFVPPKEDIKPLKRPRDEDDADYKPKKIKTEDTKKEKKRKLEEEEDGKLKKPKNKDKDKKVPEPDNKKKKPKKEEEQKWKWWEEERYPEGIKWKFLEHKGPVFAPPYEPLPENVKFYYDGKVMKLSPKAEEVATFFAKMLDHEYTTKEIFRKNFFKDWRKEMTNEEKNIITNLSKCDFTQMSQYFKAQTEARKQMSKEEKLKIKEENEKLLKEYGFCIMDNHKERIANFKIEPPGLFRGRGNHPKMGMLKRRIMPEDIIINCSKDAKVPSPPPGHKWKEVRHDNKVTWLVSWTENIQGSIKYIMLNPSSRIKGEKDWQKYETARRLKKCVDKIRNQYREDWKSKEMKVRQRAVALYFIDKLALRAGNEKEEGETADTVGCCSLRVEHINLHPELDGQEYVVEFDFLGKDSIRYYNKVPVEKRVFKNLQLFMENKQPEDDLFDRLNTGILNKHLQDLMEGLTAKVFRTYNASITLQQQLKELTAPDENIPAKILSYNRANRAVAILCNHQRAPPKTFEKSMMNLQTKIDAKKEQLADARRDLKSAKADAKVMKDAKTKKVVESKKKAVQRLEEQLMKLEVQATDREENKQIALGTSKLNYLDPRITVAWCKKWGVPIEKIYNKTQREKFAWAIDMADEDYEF
Kind of data set: Inhibition of DNA topoisomerase I (unknown origin) relaxation activity at 100 uM incubated for 30 mins by chemiDoc system.

Data set [4] in a line: Selectivity index, ratio of IC50 for human HEK293T cells to IC50 for human A-375 cells. In kind it is toxicity. The settings on record: HEK293T cells and A-375 cells, read-out: Ratio IC50.
Data set [5] has as its system MCF7. The experiment in a line: Inhibition of colony formation in human MCF7 cells at 20 to 40 nM incubated for 48 hrs by crystal violet staining method. It counts as functional, cell-based. The settings on record: dose 20-40 nM.
Data set [6] relates to A-375. Kind of data set: Antimigratory activity in human A-375 cells assessed as reduction in cell migration at 10 to 40 nM incubated for 24 hrs by crystal violet staining method. In kind it is functional, cell-based. The settings on record: dose 10-40 nM.
Data set [7] deals with A-375. The experiment in a line: Induction of cell cycle arrest in human A-375 cells assessed as accumulation of cells at G1 phase at 40 nM incubated for 24 hrs by PI based flow cytometric analysis (RVB = 52.94%). It counts as functional. (In general: Flow cytometry measures light scatter and fluorescence of single cells or particles in a stream.)
For data set [8], the system named is A-375. Kind of data set: Induction of cell cycle arrest in human A-375 cells assessed as accumulation of cells at S phase at 40 nM incubated for 24 hrs by PI based flow cytometric analysis (RVB = 26.73%). In kind it is functional.
The test system of data set [9] is A-375. Kind of data set: Induction of apoptosis in human A-375 cells at 40 nM measured after 24 hrs by Annexin V-FITC and DAPI staining based flow cytometric analysis. In kind it is functional.
The subject of data set [10] is A-375. The experiment in a line: In vivo induction of apoptosis in human A-375 cells xenografted in BALB/c nude mouse treated after 7 days of tumor implantation on right flank subcutaneously at 10 to 20 mg/kg, iv administered once per 2 days for 14 days by measuring TUNEL positive cells under a light microscope. To be noted: dose 10-20 mg/kg, time 14.0 day. It counts as functional, organism-based.

Active and inactive are the calls of the source.

For orientation: half-life means the time needed for the level to fall by half in the phase considered. What is called IC50 is the point on the concentration scale where inhibition reaches its midpoint. On to `O=C1c2c[n+]([O-])c3ccccc3c2C(=O)c2c1c1ccccc1n2Cc1cn([C@@H]2C[C@H](O)[C@@H](CO)O2)nn1`, for which the Activity was 44% in the data set on Calf thymus DNA, 28.94% in the data set on A-375 [7], 43.2% with A-375 [8] and 23.26% with A-375 [9]. The half-life in data set [1] worked out at 2.52 h. Further, in the data set with MCF7 [2], the IC50 came to 110 nM. For the same molecule, the inhibition entry (in [3]; in the data set on MCF7 [5]) was “Active” each time. In [4], the selectivity ratio worked out at 40. In addition, the outcome in the data set on A-375 [6] and in the data set on A-375 [10] was Active.
